Laboratory results reported in patent US10519167B2, “3-oxa-8-azabicyclo[3.2.1]octane derivatives and their use in the treatment of cancer and hemoglobinopathies” (CTXT PTY LTD, priority 2016, dated 2019).
Structures can show the parent of a compound that is named as a salt.

Columns and labels:
TE11 cell line = experiment: PRMT5 Biomarker Assay (symmetrical dimethylation of arginine, Histone H4 Arginine 3); type: cell-based; conditions: Homo sapiens, TE-11; TE11 cells, 72 hours incubation, Di-Methyl Histone H4 Arginine 3 level
Method: Compounds of the invention may be tested for potency to inhibit symmetrical dimethylation of arginine in the following assay:
The cell line TE11 was seeded at a density of 6,000 cells per well in 96 well optical quality tissue culture plates in DME medium and 10% foetal bovine serum, and allowed to adhere for 5 hours under standard culture conditions (37 degree Celsius, 5% CO2). Compound dilutions prepared in DMSO were added to the medium, with negative control wells reserved for treatment with DMSO only and maximum inhibition controls receiving a potent PRMT5 inhibitor compound at 1 μM concentration. After incubation for 72 hours, the cells were fixed with 3.7% formaldehyde in PBS for 30 minutes at room temperature, washed with phosphate buffer saline and blocked with Odyssey blocking buffer (LI-COR, Lincoln, Nebr.). Rabbit anti-Di-Methyl Histone H4 Arginine 3 specific antibody (Epigentek) in Odyssey blocking buffer was added and incubated for 14 hours at 4 degree Celsius. After washing, anti-rabbit secondary antibody labelled with Alexa647 dye (LifeTechnologies) and Hoechst 33342 (1 μg/mL, SigmaAldrich) were added for 1 hour incubation. Plates were washed and read on a PerkinElmer Envision 2103 in fluorescence intensity scanning mode (24 scans across the well area). The plates were imaged on a PerkinElmer Phenix high content imaging platform. Using a Columbus image analysis pipeline, individual nuclei were located by Hoechst 33342 stain and the methylation level was calculated from the Alexa647-related intensity in the same area. IC50 values were obtained from the mean Alexa647-related intensity per cell by calculating percent inhibition (% I) for each well relative to controls on the same plate (% I=(I−CN)/(CP−CN) where CN/CP are the averages of the negative/maximum inhibition controls, respectively), then fitting the % I data vs. compound concentration [I] to % I=(A+((B−A)/(1+((C/[I])^D)))) where A is the lower asymptote, B is the upper asymptote, C is the IC50 value, and D is the slope.

[1] = biological target: Full-length PRMT5 enzyme co-expressed with His6-MEP50 (Homo sapiens (Human), UniProt O14744); experiment: PRMT5 Biochemical Assay; conditions: Transcreener EPIGEN methyltransferase assay, histone H4 derived peptide substrate, 4 hours at 37 degree Celsius
Method: Compounds of the invention may be tested for in vitro activity in the following assay:
A histone H4 derived peptide is used as substrate (amino acid sequence: […]NH2). Full-length PRMT5 enzyme (NCBI Reference sequence NP_006100.2) was co-expressed with His6-MEP50 in insect cells and purified via Nickel immobilized metal affinity and gel filtration chromatography (“the enzyme”).
The 6 μL reactions are run in Greiner brand black 384-well low volume assay plates. All reactions contained assay buffer (phosphate buffered saline, 0.01% (v/v) Tween-20, 0.01% (w/v) albumin from chicken egg white, 1 mM Dithiothreitol, 1 μM peptide substrate, 1 μM S-Adenosyl methionine, and 15 ng/reaction enzyme, with the enzyme being omitted from negative control reactions. Compounds were added in a volume of 100 nL from dilution series prepared in DMSO, positive and negative control reactions receiving the same volume DMSO without compound. The plates were sealed with adhesive seals and incubated for 4 hours at 37 degree Celsius. Reaction progress was measured using the Transcreener™ EPIGEN methyltransferase assay (BellBrook Labs, Madison, Wis.) as recommended by the manufacturer. To each reaction 2 μL detection mix were added, containing coupling enzymes, fluorescence polarisation tracer, and AMP antibody. Plates were incubated for 90 minutes before being read on a PerkinElmer EnVision™ plate reader in fluorescence polarisation mode. IC50 values were obtained from the raw readings by calculating percent inhibition (% I) for each reaction relative to controls on the same plate (% I=(I−CN)/(CP−CN) where CN/CP are the averages of the negative/positive reactions, respectively), then fitting the % I data vs. compound concentration [I] to % I=(A+((B−A)/(1+((C/[I]^D)))) where A is the lower asymptote, B is the upper asymptote, C is the IC50 value, and D is the slope.

Sequence of Full-length PRMT5 enzyme co-expressed with His6-MEP50 (O14744 whole entry): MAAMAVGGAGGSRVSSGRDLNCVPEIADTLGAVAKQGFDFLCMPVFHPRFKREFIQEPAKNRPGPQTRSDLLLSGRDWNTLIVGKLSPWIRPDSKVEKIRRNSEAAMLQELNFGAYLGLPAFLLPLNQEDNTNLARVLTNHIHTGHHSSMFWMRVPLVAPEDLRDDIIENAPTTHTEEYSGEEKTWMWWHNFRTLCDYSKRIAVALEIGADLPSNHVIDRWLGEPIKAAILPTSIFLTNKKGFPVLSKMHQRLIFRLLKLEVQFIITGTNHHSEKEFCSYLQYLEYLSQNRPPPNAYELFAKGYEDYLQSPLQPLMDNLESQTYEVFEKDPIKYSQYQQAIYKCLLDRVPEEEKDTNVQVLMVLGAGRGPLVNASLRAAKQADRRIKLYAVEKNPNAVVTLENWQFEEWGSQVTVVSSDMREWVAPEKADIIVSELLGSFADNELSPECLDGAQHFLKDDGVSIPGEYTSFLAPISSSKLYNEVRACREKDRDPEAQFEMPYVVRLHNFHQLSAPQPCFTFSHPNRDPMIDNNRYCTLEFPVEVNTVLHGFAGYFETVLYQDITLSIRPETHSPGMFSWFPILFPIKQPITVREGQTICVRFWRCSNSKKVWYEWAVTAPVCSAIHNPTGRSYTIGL
Sequence of Full-length PRMT5 enzyme co-expressed with His6-MEP50 (Q9BQA1 whole entry partner): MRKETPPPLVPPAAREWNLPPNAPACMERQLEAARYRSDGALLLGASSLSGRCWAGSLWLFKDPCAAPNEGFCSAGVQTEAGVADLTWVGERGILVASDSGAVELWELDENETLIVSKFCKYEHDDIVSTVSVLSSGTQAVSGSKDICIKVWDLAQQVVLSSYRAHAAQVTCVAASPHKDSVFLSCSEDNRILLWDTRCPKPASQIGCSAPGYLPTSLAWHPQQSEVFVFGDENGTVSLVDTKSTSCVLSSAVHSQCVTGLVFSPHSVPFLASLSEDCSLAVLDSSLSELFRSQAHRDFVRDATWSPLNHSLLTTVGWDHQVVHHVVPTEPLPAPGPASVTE

Compound	IC50 (TE11 cell line)	IC50 [1]
CCOc1cc(C(=O)N2C3COCC2CC(O)C3)ccc1C(=O)NC[C@@H](O)[C@@H]1Cc2ccccc2CN1 (stereo partly drawn) [Compound 1, 2-Ethoxy-N—((R)-2-hydroxy-2-((S)-1,2,3,4-tetrahydroisoquinolin-3-yl)ethyl)-4-(7-hydroxy-3-oxa-9-azabicyclo[3.3.1]nonane-9-carbonyl)benzamide Hydrochloride]	3.9 nM	19 nM
CCOc1cc(C(=O)N2C3COCC2CC(O)C3)ccc1C(=O)NC[C@@H](O)CNC1Cc2ccccc2C1 (stereo partly drawn) [Compound 2, N—((S)-3-((2,3-Dihydro-1H-inden-2-yl)amino)-2-hydroxypropyl)-2-ethoxy-4-(7-hydroxy-3-oxa-9-azabicyclo[3.3.1]nonane-9-carbonyl)benzamide]	0.6 nM	19 nM
CCOc1cc(C(=O)N2C3CCC2COC3)ccc1C(=O)N(C)C[C@@H](O)[C@@H]1Cc2ccccc2CN1 [Compound 3, 4-(3-Oxa-8-azabicyclo[3.2.1]octane-8-carbonyl)-2-ethoxy-N—((R)-2-hydroxy-2-((S)-1,2,3,4-tetrahydroisoquinolin-3-yl)ethyl)-N-methylbenzamide Hydrochloride]	11.7 nM	36 nM
